# Results: US20230085307A1, “PYRIDAZINONE COMPOUND AND HERBICIDE” (NISSAN CHEMICAL CORPORATION, priority 2019, published 2023)
# Tests used:
# late watergrass = test: Test Example 1: herbicidal activity, application before weed generation under submerged conditions (Table 16, symbol A); format: in vivo, late watergrass (Echinochloa oryzicola); conditions: amount of applied herbicide 320 g/ha
# Method in brief: (§1)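 Submerged Wagner pots (alluvial soil, 4 cm water) sown with weed seeds and planted with 2.5-leaf rice seedlings; emulsifiable concentrate diluted in water applied to water surface on sowing day. Held in greenhouse at 25-30 °C; injury scored 0-5 by herbicidal rate after three weeks.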
# Japanese bulrush = test: Test Example 1: herbicidal activity, application before weed generation under submerged conditions (Table 16, symbol B); format: in vivo, Japanese bulrush (Schoenoplectus juncoides); conditions: amount of applied herbicide 320 g/ha
# Method in brief: as §1
# oval-leafed pondweed = test: Test Example 1: herbicidal activity, application before weed generation under submerged conditions (Table 16, symbol C); format: in vivo, oval-leafed pondweed (Monochoria vaginalis); conditions: amount of applied herbicide 320 g/ha
# Method in brief: as §1
# barnyard grass [1] = test: Test Example 3: herbicidal effect by foliage application, Wagner pot (Table 18, symbol H); format: in vivo, barnyard grass (Echinochloa crus-galli); conditions: 320 g/ha
# Method in brief: (§2)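 Plants were sown in alluvial soil held under 0.1–0.5 cm standing water and grown 14 days in a greenhouse at 25–30 °C. An emulsifiable formulation, water-diluted to the set dose, was then sprayed onto the foliage, and effects were scored three weeks later using previously defined criteria.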
# Chinese sprangletop = test: Test Example 3: herbicidal effect by foliage application, Wagner pot (Table 18, symbol D); format: in vivo, chinese sprangletop (Leptochloa chinensis); conditions: 320 g/ha
# Method in brief: as §2
# rice flat sedge = test: Test Example 3: herbicidal effect by foliage application, Wagner pot (Table 18, symbol E); format: in vivo, rice flat sedge (Cyperus iria); conditions: 320 g/ha
# Method in brief: as §2
# southern crabgrass [2] = test: Test Example 4: herbicidal effect by soil treatment (Table 19, symbol F); format: in vivo, southern crabgrass (Digitaria ciliaris); conditions: amount of applied herbicide 320 g/ha
# Method in brief: (§3)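 Seeds were sown in sterilized diluvial soil and covered with about 1.5 cm of soil. An emulsion formulation diluted with water to a predetermined herbicide amount was sprayed evenly onto the soil surface. Plants grew in a greenhouse at 25° C. to 30° C., and the effect was scored three weeks after application using criteria from an earlier test.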
# green foxtail [3] = test: Test Example 4: herbicidal effect by soil treatment (Table 19, symbol G); format: in vivo, green foxtail (Setaria viridis); conditions: amount of applied herbicide 320 g/ha
# Method in brief: as §3
# barnyard grass [4] = test: Test Example 4: herbicidal effect by soil treatment (Table 19, symbol H); format: in vivo, barnyard grass (Echinochloa crus-galli); conditions: amount of applied herbicide 320 g/ha
# Method in brief: as §3
# wild oat [5] = test: Test Example 4: herbicidal effect by soil treatment (Table 19, symbol I); format: in vivo, wild oat (Avena fatua); conditions: amount of applied herbicide 320 g/ha
# Method in brief: as §3
# blackgrass [6] = test: Test Example 4: herbicidal effect by soil treatment (Table 19, symbol J); format: in vivo, blackgrass (Alopecurus myosuroides); conditions: amount of applied herbicide 320 g/ha
# Method in brief: as §3
# Italian ryegrass [7] = test: Test Example 4: herbicidal effect by soil treatment (Table 19, symbol K); format: in vivo, Italian ryegrass (Lolium multiflorum); conditions: amount of applied herbicide 320 g/ha
# Method in brief: as §3
# windgrass [8] = test: Test Example 4: herbicidal effect by soil treatment (Table 19, symbol L); format: in vivo, windgrass (Apera spica-venti); conditions: amount of applied herbicide 320 g/ha
# Method in brief: as §3
# velvetleaf [9] = test: Test Example 4: herbicidal effect by soil treatment (Table 19, symbol M); format: in vivo, velvetleaf (Abutilon theophrasti); conditions: amount of applied herbicide 320 g/ha
# Method in brief: as §3
# redroot pigweed [10] = test: Test Example 4: herbicidal effect by soil treatment (Table 19, symbol N); format: in vivo, redroot pigweed (Amaranthus retroflexus); conditions: amount of applied herbicide 320 g/ha
# Method in brief: as §3
# lambsquarters [11] = test: Test Example 4: herbicidal effect by soil treatment (Table 19, symbol O); format: in vivo, lambsquarters (Chenopodium album); conditions: amount of applied herbicide 320 g/ha
# Method in brief: as §3
# chickweed [12] = test: Test Example 4: herbicidal effect by soil treatment (Table 19, symbol P); format: in vivo, common chickweed (Stellaria media); conditions: amount of applied herbicide 320 g/ha
# Method in brief: as §3
# false cleavers [13] = test: Test Example 4: herbicidal effect by soil treatment (Table 19, symbol Q); format: in vivo, false cleavers (Galium spurium); conditions: amount of applied herbicide 320 g/ha
# Method in brief: as §3
# persian speedwell [14] = test: Test Example 4: herbicidal effect by soil treatment (Table 19, symbol R); format: in vivo, Persian speedwell (Veronica persica); conditions: amount of applied herbicide 320 g/ha
# Method in brief: as §3
# southern crabgrass [15] = test: Test Example 5: herbicidal effect by foliage application, plastic box (Table 20, symbol F); format: in vivo, southern crabgrass (Digitaria ciliaris); conditions: foliage application, 320 g/ha, three weeks after application
# Method in brief: (§4)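 Plants sown in sterilized diluvial soil and grown 14 days in a greenhouse at 25° C to 30° C, then sprayed on the foliage with the compound's emulsion diluted in water to a predetermined herbicide amount. Injury to weeds and crops scored three weeks after application on a visual rating scale.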
# green foxtail [16] = test: Test Example 5: herbicidal effect by foliage application, plastic box (Table 20, symbol G); format: in vivo, green foxtail (Setaria viridis); conditions: foliage application, 320 g/ha, three weeks after application
# Method in brief: as §4
# barnyard grass [17] = test: Test Example 5: herbicidal effect by foliage application, plastic box (Table 20, symbol H); format: in vivo, barnyard grass (Echinochloa crus-galli); conditions: foliage application, 320 g/ha, three weeks after application
# Method in brief: as §4
# wild oat [18] = test: Test Example 5: herbicidal effect by foliage application, plastic box (Table 20, symbol I); format: in vivo, wild oat (Avena fatua); conditions: foliage application, 320 g/ha, three weeks after application
# Method in brief: as §4
# blackgrass [19] = test: Test Example 5: herbicidal effect by foliage application, plastic box (Table 20, symbol J); format: in vivo, blackgrass (Alopecurus myosuroides); conditions: foliage application, 320 g/ha, three weeks after application
# Method in brief: as §4
# Italian ryegrass [20] = test: Test Example 5: herbicidal effect by foliage application, plastic box (Table 20, symbol K); format: in vivo, Italian ryegrass (Lolium multiflorum); conditions: foliage application, 320 g/ha, three weeks after application
# Method in brief: as §4
# windgrass [21] = test: Test Example 5: herbicidal effect by foliage application, plastic box (Table 20, symbol L); format: in vivo, windgrass (Apera spica-venti); conditions: foliage application, 320 g/ha, three weeks after application
# Method in brief: as §4
# velvetleaf [22] = test: Test Example 5: herbicidal effect by foliage application, plastic box (Table 20, symbol M); format: in vivo, velvetleaf (Abutilon theophrasti); conditions: foliage application, 320 g/ha, three weeks after application
# Method in brief: as §4
# redroot pigweed [23] = test: Test Example 5: herbicidal effect by foliage application, plastic box (Table 20, symbol N); format: in vivo, redroot pigweed (Amaranthus retroflexus); conditions: foliage application, 320 g/ha, three weeks after application
# Method in brief: as §4
# lambsquarters [24] = test: Test Example 5: herbicidal effect by foliage application, plastic box (Table 20, symbol O); format: in vivo, lambsquarters (Chenopodium album); conditions: foliage application, 320 g/ha, three weeks after application
# Method in brief: as §4
# chickweed [25] = test: Test Example 5: herbicidal effect by foliage application, plastic box (Table 20, symbol P); format: in vivo, common chickweed (Stellaria media); conditions: foliage application, 320 g/ha, three weeks after application
# Method in brief: as §4
# false cleavers [26] = test: Test Example 5: herbicidal effect by foliage application, plastic box (Table 20, symbol Q); format: in vivo, false cleavers (Galium spurium); conditions: foliage application, 320 g/ha, three weeks after application
# Method in brief: as §4
# persian speedwell [27] = test: Test Example 5: herbicidal effect by foliage application, plastic box (Table 20, symbol R); format: in vivo, Persian speedwell (Veronica persica); conditions: foliage application, 320 g/ha, three weeks after application
# Method in brief: as §4
compound,measurement,setting,value
CCn1nc(C)c(O)c(-c2c(-c3ccccc3OC)sc3cc(OC)ccc23)c1=O [3-084],"Herbicidal effect, A: late watergrass",late watergrass,0 (Herbicidal rate of 5% or less (almost no effect))
same,"Herbicidal effect, B: Japanese bulrush",Japanese bulrush,3 (Herbicidal rate of 40% or more and less than 70%)
same,"Herbicidal effect, C: oval-leafed pondweed",oval-leafed pondweed,1 (Herbicidal rate of 5% or more and less than 20%)
same,herbicidal effect on barnyard grass (H),barnyard grass [1],5 (Herbicidal rate of 90% or more (almost completely withered))
same,herbicidal effect on Chinese sprangletop (D),Chinese sprangletop,0 (Herbicidal rate of 5% or less (almost no effect))
same,herbicidal effect on rice flat sedge (E),rice flat sedge,3 (Herbicidal rate of 40% or more and less than 70%)
same,"F: southern crabgrass, herbicidal effect grade",southern crabgrass [2],0 (Herbicidal rate of 5% or less (almost no effect))
same,"G: green foxtail, herbicidal effect grade",green foxtail [3],0 (Herbicidal rate of 5% or less (almost no effect))
same,"H: barnyard grass, herbicidal effect grade",barnyard grass [4],0 (Herbicidal rate of 5% or less (almost no effect))
same,"I: wild oat, herbicidal effect grade",wild oat [5],2 (Herbicidal rate of 20% or more and less than 40%)
same,"J: blackgrass, herbicidal effect grade",blackgrass [6],0 (Herbicidal rate of 5% or less (almost no effect))
same,"K: Italian ryegrass, herbicidal effect grade",Italian ryegrass [7],1 (Herbicidal rate of 5% or more and less than 20%)
same,"L: windgrass, herbicidal effect grade",windgrass [8],0 (Herbicidal rate of 5% or less (almost no effect))
same,"M: velvetleaf, herbicidal effect grade",velvetleaf [9],0 (Herbicidal rate of 5% or less (almost no effect))
same,"N: redroot pigweed, herbicidal effect grade",redroot pigweed [10],4 (Herbicidal rate of 70% or more and less than 90%)
same,"O: lambsquarters, herbicidal effect grade",lambsquarters [11],2 (Herbicidal rate of 20% or more and less than 40%)
same,"P: chickweed, herbicidal effect grade",chickweed [12],4 (Herbicidal rate of 70% or more and less than 90%)
same,"Q: false cleavers, herbicidal effect grade",false cleavers [13],3 (Herbicidal rate of 40% or more and less than 70%)
same,"R: persian speedwell, herbicidal effect grade",persian speedwell [14],4 (Herbicidal rate of 70% or more and less than 90%)
same,"F: southern crabgrass, herbicidal effect grade",southern crabgrass [15],3 (Herbicidal rate of 40% or more and less than 70%)
same,"G: green foxtail, herbicidal effect grade",green foxtail [16],3 (Herbicidal rate of 40% or more and less than 70%)
same,"H: barnyard grass, herbicidal effect grade",barnyard grass [17],3 (Herbicidal rate of 40% or more and less than 70%)
same,"I: wild oat, herbicidal effect grade",wild oat [18],3 (Herbicidal rate of 40% or more and less than 70%)
same,"J: blackgrass, herbicidal effect grade",blackgrass [19],4 (Herbicidal rate of 70% or more and less than 90%)
same,"K: Italian ryegrass, herbicidal effect grade",Italian ryegrass [20],1 (Herbicidal rate of 5% or more and less than 20%)
same,"L: windgrass, herbicidal effect grade",windgrass [21],3 (Herbicidal rate of 40% or more and less than 70%)
same,"M: velvetleaf, herbicidal effect grade",velvetleaf [22],4 (Herbicidal rate of 70% or more and less than 90%)
same,"N: redroot pigweed, herbicidal effect grade",redroot pigweed [23],5 (Herbicidal rate of 90% or more (almost completely withered))
same,"O: lambsquarters, herbicidal effect grade",lambsquarters [24],3 (Herbicidal rate of 40% or more and less than 70%)
same,"P: chickweed, herbicidal effect grade",chickweed [25],5 (Herbicidal rate of 90% or more (almost completely withered))
same,"Q: false cleavers, herbicidal effect grade",false cleavers [26],5 (Herbicidal rate of 90% or more (almost completely withered))
same,"R: persian speedwell, herbicidal effect grade",persian speedwell [27],5 (Herbicidal rate of 90% or more (almost completely withered))
